“And” between values parts separate entries of the source, which are not always exact repeats. Equal values may be shown once. Read-outs that look alike come from different tables or passages of the source. Where a SMILES comes first, the peptide text is derived from it. [ ]: non-standard residue; d: D form. The star is where a group is joined. PEG4 = NCCOCCOCCOCCOCCC(=O)O; Piperidide = C1CCN(*)CC1
What was measured:
[1] = 50% human serum (from human male AB plasma, US origin; centrifuged to remove the lipid content); conditions: 37 °C, up to 24 h
erythrocytes = assay type: cell-based; conditions: red cells of horse, 2 h
Method: Defibrinated horse blood (1 mL) was washed 3 times with 0.9% NaCl solution to remove plasma and then resuspended in 20 mL of 0.9% NaCl solution to obtain a red blood cell (RBC) suspension. Aliquots of the RBC suspension (100 µL) were incubated with 100 µL of compound solutions at concentrations ranging from 100 to 1.5625 µM (twofold serial dilution) for 2 h at 37 °C. RBCs treated with 0.9% NaCl solution and 1% Triton X‐100 solution served as blank and positive controls, respectively. Subsequently, the samples were centrifuged at 900 × g for 10 min, and the absorbance of the supernatant was measured at 570 nm.
The hemolysis ratio was calculated as (2) Hemolysis%=ODSamplegroup−ODBlank/ODPositivegroup−ODBlank×100%

H460 cell line = test: cells; assay type: cell-based
Method: (§1) MTT assay was conducted as previously described.^[ [44] ^] Tumor cell lines (NCI‐H460, NCI‐H838, HT‐1080, MCF‐7, PC‐3, U‐251‐MG, and U‐87 MG) were seeded in 96‐well plates at a density of 8000 cells per well in a volume of 100 µL and cultured for 24 h. Normal cell lines (HaCaT, HMEC‐1, MRC‐5, and HEK‐293) were seeded in 96‐well plates at a density of 10 000 cells per well in a volume of 100 µL and cultured for 48 h. After that, only tumor cell lines were starved with 100 µL of SFM for a further 4–6 h. Subsequently, cells were treated with 100 µL of compound solutions with different concentrations for 24 h. Cells treated with SFM and 0.5% DMSO in SFM served as blank control and growth control, respectively. Ten µL of MTT solution (5 mg mL^−1) was added to each well, followed by an additional incubation period of 2 h for tumor cells and 4 h for normal cells. Finally, the solvent in each well was swapped with 100 µL of DMSO to dissolve the formazan crystals. The absorbance was measured by the plate reader at 570 nm.
(§2) The cell viability was calculated (1) Cellviability%=ODSamplegroup−ODBlank/ODGrowthgroup−ODBlank×100%

HEK-293 normal cell line = test: cells; assay type: cell-based
Method: as §1, §2

Row | Molecule | cleaved bond [1] | HC10 (concentration causing 10% of erythrocytes lysis) (erythrocytes) [µM] | IC50 (H460 cell line; 24 h) [µM] | IC50 (HEK-293 normal cell line; 24 h) [µM] | further results
1 | FFPKIFDDLE(PIP)SILPKIL-NH2 | Phe1-F | – | – | – | –
2 | CC[C@H](C)[C@H](NC(=O)[C@H](CCCCN)NC(=O)[C@@H]1CCCN1C(=O)[C@H](CC(C)C)NC(=O)[C@@H](NC(=O)[C@H](CO)NC(=O)[C@H](CCC(=O)N1CCCCC1)NC(=O)[C@H](CC(C)C)NC(=O)[C@H](CC(=O)O)NC(=O)[C@H](CC(=O)O)NC(=O)[C@H](Cc1ccccc1)NC(=O)[C@@H](NC(=O)[C@H](CCCCN)NC(=O)[C@@H]1CCCN1C(=O)[C@H](Cc1ccccc1)NC(=O)[C@@H](N)Cc1ccccc1)[C@@H](C)CC)[C@@H](C)CC)C(=O)N[C@@H](CC(C)C)C(=O)NCC(=O)N1CCC[C@H]1C(=O)N[C@@H](CC(C)C)C(=O)NCC(=O)N[C@@H](CC(C)C)C(=O)N[C@@H](C)C(=O)NCC(=O)NCCOCCOCCOCCOCCC(N)=O [compound 204] (H-FFPKIFDDLE(Piperidide)SILPKILGPLGLAG[PEG4]-NH2) | – | 46.10 | 20 ± 1.05 | 34.1 ± 3.41 | –
3 | CC[C@H](C)[C@H](NC(=O)[C@H](CCCCN)NC(=O)[C@@H]1CCCN1C(=O)[C@H](CC(C)C)NC(=O)[C@@H](NC(=O)[C@H](CO)NC(=O)[C@H](CCC(=O)N1CCCCC1)NC(=O)[C@H](CC(C)C)NC(=O)[C@H](CC(=O)O)NC(=O)[C@H](CC(=O)O)NC(=O)[C@H](Cc1ccccc1)NC(=O)[C@@H](NC(=O)[C@H](CCCCN)NC(=O)[C@@H]1CCCN1C(=O)[C@H](Cc1ccccc1)NC(=O)[C@@H](N)Cc1ccccc1)[C@@H](C)CC)[C@@H](C)CC)C(=O)N[C@@H](CC(C)C)C(=O)NCC(=O)NCC(=O)NCC(=O)NCC(=O)NCC(=O)NCC(=O)NCC(=O)NCCOCCOCCOCCOCCC(=O)NCCOCCOCCOCCOCCC(=O)NCCOCCOCCOCCOCCC(=O)NCCOCCOCCOCCOCCC(N)=O [compound 288] (H-FFPKIFDDLE(Piperidide)SILPKILGGGGGGG[PEG4][PEG4][PEG4][PEG4]-NH2) | – | >100 | > 100 | > 100 | –
4 | O=c1[nH]cc(F)c(=O)[nH]1 [5-Fluorouracil, 5-fluorouracil, reference compound] | – | – | – | – | IC50 (H460 cell line; Homo sapiens, NCI-H460, read-out: IC50 Value of chemotherapeutics, H460): 432 ± 61.2 µM; IC50 (HEK-293 normal cell line; Homo sapiens, HEK293, read-out: IC50 Value of chemotherapeutics, HEK-293): 430 ± 40.2 µM
5 | CC[C@H](C)[C@H](NC(=O)[C@H](CCCCN)NC(=O)[C@@H]1CCCN1C(=O)[C@H](CC(C)C)NC(=O)[C@@H](NC(=O)[C@H](CO)NC(=O)[C@H](CCC(=O)N1CCCCC1)NC(=O)[C@H](CC(C)C)NC(=O)[C@H](CC(=O)O)NC(=O)[C@H](CC(=O)O)NC(=O)[C@H](Cc1ccccc1)NC(=O)[C@@H](NC(=O)[C@H](CCCCN)NC(=O)[C@@H]1CCCN1C(=O)[C@H](Cc1ccccc1)NC(=O)[C@@H](N)Cc1ccccc1)[C@@H](C)CC)[C@@H](C)CC)C(=O)N[C@@H](CC(C)C)C(=O)NCC(=O)N1CCC[C@H]1C(=O)N[C@@H](CC(C)C)C(=O)NCC(=O)N[C@@H](CC(C)C)C(=O)N[C@@H](C)C(=O)NCC(=O)NCCOCCOCCOCCOCCC(=O)NCCOCCOCCOCCOCCC(N)=O [compound 207] (H-FFPKIFDDLE(Piperidide)SILPKILGPLGLAG[PEG4][PEG4]-NH2) | – | 69.26 | 28 ± 1.59 | 44.2 ± 3.21 | –
6 | ARFFPKIFDDLE(PIP)SILPKIL-NH2 | R-F, major | – | – | – | –
7 | CC[C@H](C)[C@H](NC(=O)[C@H](CCCCN)NC(=O)[C@@H]1CCCN1C(=O)[C@H](CC(C)C)NC(=O)[C@@H](NC(=O)[C@H](CO)NC(=O)[C@H](CCC(=O)N1CCCCC1)NC(=O)[C@H](CC(C)C)NC(=O)[C@H](CC(=O)O)NC(=O)[C@H](CC(=O)O)NC(=O)[C@H](Cc1ccccc1)NC(=O)[C@@H](NC(=O)[C@H](CCCCN)NC(=O)[C@@H]1CCCN1C(=O)[C@H](Cc1ccccc1)NC(=O)[C@H](Cc1ccccc1)NC(=O)[C@H](CCCCN)NC(=O)[C@H](C)N)[C@@H](C)CC)[C@@H](C)CC)C(=O)N[C@@H](CC(C)C)C(N)=O [239-4] (H-AKFFPKIFDDLE(Piperidide)SILPKIL-NH2) | – | 25.61 | 22.2 ± 1.06 | 31.5 ± 4.28 | –
8 | AK(Ac)FFPKIFDDLE(PIP)SILPKIL-NH2 | – | – | – | – | fragment found [1]: 239-4-Ac-1 FPKIFDDLE(PIP)SILPKIL-NH2 and 239-4-Ac-2 FFPKIFDDLE(PIP)SILPKIL-NH2
9 | CC(=O)O[C@H]1C(=O)[C@@]2(C)[C@H]([C@H](OC(=O)c3ccccc3)[C@]3(O)C[C@H](OC(=O)[C@H](O)[C@@H](NC(=O)c4ccccc4)c4ccccc4)C(C)=C1C3(C)C)[C@]1(OC(C)=O)CO[C@@H]1C[C@@H]2O [Paclitaxel, paclitaxel, reference compound] | – | – | – | – | IC50 (H460 cell line; Homo sapiens, NCI-H460, Table S11, MTT, read-out: IC50 Value of chemotherapeutics, H460): 220 ± 65 µM; IC50 (HEK-293 normal cell line; Homo sapiens, HEK293, Table S11, MTT, read-out: IC50 Value of chemotherapeutics, HEK-293): < 7 µM
10 | AKFFPKIFDDLE(PIP)SILPKIL-NH2 | Ala-K | – | – | – | –
11 | AEFFPKIFDDLE(PIP)SILPKIL-NH2 | Ala-E | – | – | – | –
12 | FFPKIFDDLE(PIP)SILPKILGPLGLAG-(PEG4)4-NH2 | Phe1-F | – | – | – | –
13 | AKFFPKIFDDLE(PIP)SILPKILGPLGLAG-(PEG4)6-NH2 | – | – | – | – | not cleaved [1]: nearly 100% remaining ratio after 24 h
14 | CC[C@H](C)[C@H](NC(=O)[C@H](CCCCN)NC(=O)[C@@H]1CCCN1C(=O)[C@H](CC(C)C)NC(=O)[C@@H](NC(=O)[C@H](CO)NC(=O)[C@H](CCC(=O)N1CCCCC1)NC(=O)[C@H](CC(C)C)NC(=O)[C@H](CC(=O)O)NC(=O)[C@H](CC(=O)O)NC(=O)[C@H](Cc1ccccc1)NC(=O)[C@@H](NC(=O)[C@H](CCCCN)NC(=O)[C@@H]1CCCN1C(=O)[C@H](Cc1ccccc1)NC(=O)[C@H](Cc1ccccc1)NC(=O)[C@@H](NC(=O)[C@H](C)N)[C@@H](C)O)[C@@H](C)CC)[C@@H](C)CC)C(=O)N[C@@H](CC(C)C)C(N)=O [239-2] (H-ATFFPKIFDDLE(Piperidide)SILPKIL-NH2) | – | 57.04 | 36.8 ± 3.25 | 44.8 ± 4.06 | –
15 | CC[C@H](C)[C@H](NC(=O)[C@H](CCCCN)NC(=O)[C@@H]1CCCN1C(=O)[C@H](CC(C)C)NC(=O)[C@@H](NC(=O)[C@H](CO)NC(=O)[C@H](CCC(=O)N1CCCCC1)NC(=O)[C@H](CC(C)C)NC(=O)[C@H](CC(=O)O)NC(=O)[C@H](CC(=O)O)NC(=O)[C@H](Cc1ccccc1)NC(=O)[C@@H](NC(=O)[C@H](CCCCN)NC(=O)[C@@H]1CCCN1C(=O)[C@H](Cc1ccccc1)NC(=O)[C@H](Cc1ccccc1)NC(=O)[C@H](CCC(=O)O)NC(=O)[C@H](C)N)[C@@H](C)CC)[C@@H](C)CC)C(=O)N[C@@H](CC(C)C)C(N)=O [239-1] (H-AEFFPKIFDDLE(Piperidide)SILPKIL-NH2) | – | 97.64 | 88.2 | > 100 | –
16 | N.N.[Cl][Pt][Cl] [Cisplatin, cisplatin, reference compound] | – | – | – | – | IC50 (H460 cell line; Table S11, MTT, read-out: IC50 Value of chemotherapeutics, H460): 203 ± 26.9 µM; IC50 (HEK-293 normal cell line; Table S11, MTT, read-out: IC50 Value of chemotherapeutics, HEK-293): 162 ± 18.8 µM
17 | ATFFPKIFDDLE(PIP)SILPKIL-NH2 | F-F, major | – | – | – | –
18 | CC[C@H](C)[C@H](NC(=O)[C@H](CCCCN)NC(=O)[C@@H]1CCCN1C(=O)[C@H](CC(C)C)NC(=O)[C@@H](NC(=O)[C@H](CO)NC(=O)[C@H](CCC(=O)N1CCCCC1)NC(=O)[C@H](CC(C)C)NC(=O)[C@H](CC(=O)O)NC(=O)[C@H](CC(=O)O)NC(=O)[C@H](Cc1ccccc1)NC(=O)[C@@H](NC(=O)[C@H](CCCCN)NC(=O)[C@@H]1CCCN1C(=O)[C@H](Cc1ccccc1)NC(=O)[C@H](Cc1ccccc1)NC(=O)[C@H](CCCNC(=N)N)NC(=O)[C@H](C)N)[C@@H](C)CC)[C@@H](C)CC)C(=O)N[C@@H](CC(C)C)C(N)=O [239-3] (H-ARFFPKIFDDLE(Piperidide)SILPKIL-NH2) | – | 24.72 | 14.7 ± 1.22 | 15 ± 1.38 | –
